Reference: PMC5474678 (Journal of medicinal chemistry, 2015)

Columns and labels:
MV4;11 cells = assay: Cell viability assay; type: cell-based; settings: Homo sapiens, MV4-11, 96 h, read-out: IC50 cell growth inhibition MV4
MOLM-13 cells = assay: Cell viability assay; type: cell-based; settings: Homo sapiens, MOLM-13, 96 h, read-out: IC50 cell growth inhibition MOLM-13
K562 cells = assay: Cell viability assay; type: cell-based; settings: Homo sapiens, K562, 96 h, read-out: IC50 cell growth inhibition K562
BRD4 BD1 = BRD4 BD1 (Homo sapiens, UniProt O60885); assay: Competitive fluorescence polarization
BRD4 BD2 = BRD4 BD2 (Homo sapiens, UniProt O60885); assay: Competitive fluorescence polarization
BRD2 BD1 = BRD2 BD1 (Homo sapiens, UniProt P25440); assay: Competitive fluorescence polarization
BRD3 BD1 = BRD3 BD1 (Homo sapiens, UniProt Q15059); assay: Competitive fluorescence polarization
BRD3 BD2 = BRD3 BD2 (Homo sapiens, UniProt Q15059); assay: Competitive fluorescence polarization
Chain of BRD3 BD2 (Q15059 306-417): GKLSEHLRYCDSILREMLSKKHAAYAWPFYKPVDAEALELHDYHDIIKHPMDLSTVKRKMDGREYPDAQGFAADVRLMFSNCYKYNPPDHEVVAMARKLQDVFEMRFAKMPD

Chain of BRD2 BD1 (P25440 72-205): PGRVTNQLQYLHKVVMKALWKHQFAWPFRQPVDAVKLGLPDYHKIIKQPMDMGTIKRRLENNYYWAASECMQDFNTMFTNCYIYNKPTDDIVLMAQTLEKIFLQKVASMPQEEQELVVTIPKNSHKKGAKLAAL
Chain of BRD3 BD1 (Q15059 24-144): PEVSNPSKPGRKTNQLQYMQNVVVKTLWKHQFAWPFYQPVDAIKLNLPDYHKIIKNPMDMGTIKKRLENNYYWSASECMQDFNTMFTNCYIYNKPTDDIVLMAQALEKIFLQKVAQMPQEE

IC50 (MV4;11 cells): 34 ± 15 nM
IC50 (MOLM-13 cells): 144 ± 31 nM
IC50 (K562 cells): > 2000 nM
IC50 (BRD4 BD1): 80.6 ± 1 nM
Ki (BRD4 BD1): 26.9 ± 1 nM
IC50 (BRD4 BD2): 129 ± 45 nM
Ki (BRD4 BD2): 38 ± 2.2 nM
Ki (BRD2 BD1): 12.2 ± 1.7 nM
Ki (BRD3 BD1): 10.4 ± 1 nM
Ki (BRD3 BD2): 9.4 ± 1 nM
SMILES: COc1cc2c(cc1-c1c(C)noc1C)[nH]c1ccnc(-c3c(-c4ccccc4)n[nH]c3C)c12 [Compound 19, 4-(8-Methoxy-1-(5-methyl-3-phenyl-1H-pyrazol-4-yl)-5H-pyrido[4,3-b]indol-7-yl)-3,5-dimethyl-isoxazole]
